Test system: orexin gene-expressing cells (orexin neuron) in the lateral hypothalamic area
Experiment: Increase in orexin neuron in vivo, in situ hybridization of lateral hypothalamic area of old mouse
Conditions: old mouse C57BL/6 male, 5 mg/ml in drinking water, 8 weeks from 53- to 61-week-old, versus non-administration old mouse; FIG. 12
Description: ManNAc was dissolved in drinking water, and the drinking water with a concentration of 5 mg/ml was administered to old mouse (C57BL/6, male) by allowing free access to water for 8 weeks in total from 53-week-old to 61-week-old. After completion of the administration, the aforementioned mouse was immediately perfusion fixed and subjected to in situ hybridization method. As a control group, ManNAc non-administration old mouse (61-week-old at the time point of fixing) and young mouse (10-week-old at the time point of fixing) were used.
Each three mice of ManNAc administration and control groups were anesthetized with Nembutal, and perfusion fixed with formamide fixative (Genostaff). The brain was removed, embedded in paraffin, and 6 μm-thick sections were prepared in the sagittal section direction. […]
was cloned into a […] vector (Promega) and, using the plasmid as a template and DIG RNA Labeling Mix (Roche), a digoxygenin-labeled RNA probe was produced. […] The cells that expressed orexin gene were counted and the average of three animals and the standard error were determined.

With `CC(=O)N[C@@H]1C(O)O[C@H](CO)[C@@H](O)[C@@H]1O` (stereo partly drawn) [ManNAc, N-acetyl-D-mannosamine] the “number of orexin gene-expressing cells (orexin neuron) in the lateral hypothalamic area” value was “orexin neuron increased”.
